From article PMC4877006, “From Binding-Induced Dynamic Effects in SH3 Structures to Evolutionary Conserved Sectors” (PLoS Computational Biology, 2016)

Columns and labels:
Set-up in all cases: species or system chicken
[1] = biological target: T1, c-Src wt (SH3 domain) (Gallus gallus, UniProt P00523, Q128R); assay: ITC binding of peptide RLP2 to c-Src SH3 wt; conditions: 25 °C
T1 construct: The plasmid pET15b containing the chicken c-Src-SH3 domain gene; made in house
Method: (§1) Differential Scanning Calorimetry (DSC) was used to evaluate the effect of the mutation on the conformational equilibrium and stability of the protein. Isothermal Titration Calorimetry (ITC) measured the binding energetics of all mutants to the RLP2 ligand at 25°C. The results for the 15 mutants studied are summarized in Figs 1D, S1 and S2, as well as S3 and S4 Tables.
(§2) The plasmid pET15b containing the chicken c-Src-SH3 domain gene was a generous gift from Dr. E. Freire (Johns Hopkins University). The genes encoding for the c-Src-SH3 mutants were obtained by site directed mutagenesis using the QuickChange Site-Directed-Mutagenesis Kit (Stratagene) taking the WT c-Src-SH3 plasmid as template or purchased from Top Gene Technologies, Canada. WT and mutants of c-Src-SH3 domain were expressed and purified as previously described for the wild type protein [68]. The peptide RLP2 (Ac-RALPPLPRY-NH2) was bought from Peptide 2.0 (Piscataway, USA) and JPT (Berlin, Germany) with a purity > 95%. Protein concentration was determined by absorbance at 280 nm using an extinction coefficient of 16500 M^-1·cm^-1. Peptide concentration was determined by absorbance at 274 nm using an extinction coefficient of 1400 M^-1·cm^-1.
(§3) Isothermal titration calorimetry was performed using a high-precision VP titration calorimetric system (Microcal Inc., Northampton, MA) as previously described. […] Titrations were made using a profile of injection volumes from 3 μL to 20 μL to define the titration curve more clearly. The heat produced by the binding reaction between the Src-SH3 domain and the peptide ligand was calculated as the difference between the heat of reaction and the corresponding heat of dilution, as obtained from independent titrations of the peptide ligand into the buffer. The resulting binding isotherms were analyzed by non-linear least-square fittings of the experimental data to a model corresponding to a single set of identical sites, as described before.
(§4) Supplementary file pcbi.1004938.s008.doc: S3 Table Analysis of Src SH3 binding affinities through ITC. Thermodynamic binding affinity to peptide RLP2. A * indicates experiment made by fluorescence titration only. (DOC) Click here for additional data file.

[2] = biological target: T2, c-Src F18L (SH3 domain) (Gallus gallus, UniProt P00523, F86L/Q128R); assay: ITC binding of peptide RLP2 to c-Src SH3 F18L; conditions: ITC, 25 °C
T2 construct: The plasmid pET15b containing the chicken c-Src-SH3 domain gene; made in house
Method: as §1, §2, §3, §4

[3] = tested on: c-Src F18L (SH3 domain); assay: ITC binding of peptide RLP2 to c-Src SH3 F18L; conditions: 25 °C, binding of RLP2, F18L relative to wt
Method: as §1, §2, §3, §4

[4] = biological target: T3, c-Src F18W (SH3 domain) (Gallus gallus, UniProt P00523, F86W); assay: ITC binding of peptide RLP2 to c-Src SH3 F18W; conditions: 25 °C
T3 construct: The plasmid pET15b containing the chicken c-Src-SH3 domain gene; made in house
Method: as §1, §2, §3, §4

[5] = tested on: c-Src S26A (SH3 domain); assay: ITC binding of peptide RLP2 to c-Src SH3 S26A; conditions: 25 °C
Method: as §1, §2, §3, §4

[6] = biological target: T4, c-Src L32V (SH3 domain) (Gallus gallus, UniProt P00523, L100V/Q128R); assay: Fluorescence titration binding of peptide RLP2 to c-Src SH3 L32V; conditions: fluorescence titration only, 25 °C
T4 construct: The plasmid pET15b containing the chicken c-Src-SH3 domain gene; made in house
Source text: as §2, §4

[7] = biological target: T5, c-Src F34I (SH3 domain) (Gallus gallus, UniProt P00523, F102I/Q128R); assay: ITC binding of peptide RLP2 to c-Src SH3 F34I; conditions: 25 °C
T5 construct: The plasmid pET15b containing the chicken c-Src-SH3 domain gene; made in house
Method: as §1, §2, §3, §4

[8] = biological target: T6, c-Src L40I (SH3 domain) (Gallus gallus, UniProt P00523, L108I); assay: ITC binding of peptide RLP2 to c-Src SH3 L40I; conditions: 25 °C
T6 construct: The plasmid pET15b containing the chicken c-Src-SH3 domain gene; made in house
Method: as §1, §2, §3, §4

[9] = tested on: c-Src L40V (SH3 domain); assay: ITC binding of peptide RLP2 to c-Src SH3 L40V; conditions: 25 °C
Method: as §1, §2, §3, §4

[10] = binding of RLP2, wt = reference
[11] = binding of RLP2, F18W relative to wt
[12] = binding of RLP2, S26A relative to wt
[13] = binding of RLP2, F34I relative to wt
[14] = binding of RLP2, L40I relative to wt
[15] = binding of RLP2, L40V relative to wt

With “Ac-RALPPLPRY-NH2 [RLP2, Ac-RALPPLPRY-NH2]” the “∆∆Gb (25 ºC)” value [1, 10] was 0 kcal/mol, the “∆∆Hb (25 ºC)” value [1, 10] was 0 kcal/mol and the “∆Gb (25 ºC)” value ([1]; ITC, binding of RLP2, wt) was -6.63 ± 0.03 kcal/mol. The “∆Hb (25 ºC)” value ([1]; ITC, binding of RLP2, wt) was -14.2 ± 0.2 kcal/mol, the Kd ([1]; ITC, RLP2 about 2 mM titrated into SH3 (50-122 μM), single set of identical sites, wt, read-out: Kd (25 ºC)) was 13.8 ± 0.6 µM and the “∆Gb (25 ºC)” value ([2]; binding of RLP2, F18L) was -6.64 ± 0.01 kcal/mol. For the same substance, the “∆Hb (25 ºC)” value ([2]; binding of RLP2, F18L) was -14.5 ± 0.1 kcal/mol, the Kd ([2]; RLP2 about 2 mM titrated into SH3 (50-122 μM), F18L, read-out: Kd (25 ºC)) was 13.5 ± 0.3 µM and the “∆∆Gb (25 ºC)” value [3] was -0.01 ± 0.03 kcal/mol. The “∆∆Hb (25 ºC)” value [3] was -0.3 ± 0.2 kcal/mol, the “∆∆Gb (25 ºC)” value [4, 11] was 0.23 ± 0.03 kcal/mol and the “∆∆Hb (25 ºC)” value [4, 11] was 1.2 ± 0.2 kcal/mol. The “∆Gb (25 ºC)” value ([4]; ITC, binding of RLP2, F18W) was -6.40 ± 0.01 kcal/mol, the “∆Hb (25 ºC)” value ([4]; ITC, binding of RLP2, F18W) was -13.0 ± 0.1 kcal/mol and the Kd ([4]; ITC, RLP2 about 2 mM titrated into SH3 (50-122 μM), F18W, read-out: Kd (25 ºC)) was 20.2 ± 0.3 µM. The “∆∆Gb (25 ºC)” value [5, 12] was 0.18 ± 0.06 kcal/mol, the “∆∆Hb (25 ºC)” value [5, 12] was 0.4 ± 0.5 kcal/mol and the “∆Gb (25 ºC)” value ([5]; ITC, binding of RLP2, S26A) was -6.45 ± 0.05 kcal/mol. The “∆Hb (25 ºC)” value ([5]; ITC, binding of RLP2, S26A) was -13.8 ± 0.5 kcal/mol, the Kd ([5]; ITC, RLP2 about 2 mM titrated into SH3 (50-122 μM), S26A (control), read-out: Kd (25 ºC)) was 18.8 ± 1.4 µM and the “∆∆Gb (25 ºC)” value ([6]; L32V relative to wt) was 1.76 ± 0.07 kcal/mol. For the same substance, the “∆Gb (25 ºC)” value ([6]; binding of RLP2, L32V) was -4.87 ± 0.06 kcal/mol, the Kd ([6]; L32V, read-out: Kd (25 ºC)) was 269 ± 29 µM and the “∆∆Gb (25 ºC)” value [7, 13] was 0.79 ± 0.03 kcal/mol. The “∆∆Hb (25 ºC)” value [7, 13] was 0.6 ± 0.3 kcal/mol, the “∆Gb (25 ºC)” value ([7]; ITC, binding of RLP2, F34I) was -5.84 ± 0.01 kcal/mol and the “∆Hb (25 ºC)” value ([7]; ITC, binding of RLP2, F34I) was -13.6 ± 0.3 kcal/mol. The Kd ([7]; ITC, RLP2 about 2 mM titrated into SH3 (50-122 μM), F34I, read-out: Kd (25 ºC)) was 52.6 ± 1.2 µM, the “∆∆Gb (25 ºC)” value [8, 14] was 0.24 ± 0.04 kcal/mol and the “∆∆Hb (25 ºC)” value [8, 14] was 0.4 ± 0.4 kcal/mol. The “∆Gb (25 ºC)” value ([8]; ITC, binding of RLP2, L40I) was -6.39 ± 0.02 kcal/mol, the “∆Hb (25 ºC)” value ([8]; ITC, binding of RLP2, L40I) was -13.8 ± 0.3 kcal/mol and the Kd ([8]; ITC, RLP2 about 2 mM titrated into SH3 (50-122 μM), L40I, read-out: Kd (25 ºC)) was 20.6 ± 0.6 µM. The “∆∆Gb (25 ºC)” value [9, 15] was 0.24 ± 0.04 kcal/mol, the “∆∆Hb (25 ºC)” value [9, 15] was -0.6 ± 0.3 kcal/mol and the “∆Gb (25 ºC)” value ([9]; ITC, binding of RLP2, L40V) was -6.39 ± 0.02 kcal/mol.
